Test results: patent US6274715A, “Tricyclic erythromycin derivatives” (priority 1997, dated 2001)
Values after ≈ are worked out from the molar mass of the structure shown.

Legend:
Assay type in all cases: cell-based
[1] = system: KLEBSIELLA PNEUMONIAE ATCC 8045; assay: In vitro antibacterial activity, MIC, BHI agar dilution; conditions: K. pneumoniae ATCC 8045, unit assumed
ESCHERICHIA COLI DC-2 = assay: as above; conditions: E. coli DC-2, unit assumed
[2] = system: STAPHYLOCOCCUS AUREUS A-5278; assay: as above; conditions: S. aureus A-5278, unit assumed
[3] = system: MYCOBACTERIUM SMEGMATIS ATCC 114; assay: as above; conditions: M. smegmatis ATCC 114, unit assumed
[4] = system: STAPHYLOCOCCUS AUREUS CMX 642A; assay: as above; conditions: S. aureus CMX 642A, unit assumed
[5] = system: PSEUDOMONAS AERUGINOSA K799/WT; assay: as above; conditions: P. aeruginosa K799/WT, unit assumed
[6] = system: STREPTOCOCCUS PYOGENES 930; assay: as above; conditions: S. pyogenes 930, unit assumed
[7] = system: PSEUDOMONAS AERUGINOSA DPHD-2862; assay: as above; conditions: P. aeruginosa DPHD-2862, unit assumed
PSEUDOMONAS CEPACIA 296I = assay: as above; conditions: P. cepacia 296I, unit assumed
[8] = system: STAPHYLOCOCCUS AUREUS NCTC10649M; assay: as above; conditions: S. aureus NCTC10649M, unit assumed
[9] = system: STAPHYLOCOCCUS AUREUS ATCC 6538P; assay: as above; conditions: S. aureus ATCC 6538P, 35-37° C., 20 to 24 hours, unit assumed
[10] = system: STREPTOCOCCUS PYOGENES PIU 2548; assay: as above; conditions: S. pyogenes PIU 2548, unit assumed
[11] = system: STAPHYLOCOCCUS EPIDERMIDIS 3519; conditions: S. epidermidis 3519; BHI agar; unit assumed
STR[…] 508 = assay: In vitro antibacterial activity, MIC, BHI agar dilution; conditions: S. agalactiae CMX 508, unit assumed
Procedure, shortened: (§1)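 Agar dilution in BHI: plates inoculated with 1:100 dilutions of organisms (1:10 for Micrococcus and Streptococcus), incubated 20-24 h at 35-37° C, then inspected for the lowest inhibitory concentration against a drug-free growth control.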

M[…] ATCC 9341 = assay: as above; conditions: M. luteus ATCC 9341, unit assumed
Procedure, shortened: as §1

EN[…] ATCC 8043 = assay: as above; conditions: E. faecium ATCC 8043, unit assumed
Procedure, shortened: as §1

M[…] ATCC 4698 = assay: as above; conditions: M. luteus ATCC 4698, unit assumed
Procedure, shortened: as §1

[12] = system: STREPTOCOCCUS BOVIS A-5169; assay: as above; conditions: S. bovis A-5169, unit assumed
[13] = system: PSEUDOMONAS AERUGINOSA DPHD-5263; assay: as above; conditions: P. aeruginosa DPHD-5263, unit assumed
[14] = system: STAPHYLOCOCCUS AUREUS 1775; assay: as above; conditions: S. aureus 1775, unit assumed
[15] = system: PSEUDOMONAS AERUGINOSA BMH10; assay: as above; conditions: P. aeruginosa BMH10, unit assumed
[16] = system: STAPHYLOCOCCUS AUREUS CMX 553; assay: as above; conditions: S. aureus CMX 553, unit assumed
[17] = system: PSEUDOMONAS AERUGINOSA 5007; assay: as above; conditions: P. aeruginosa 5007, unit assumed
[18] = system: STAPHYLOCOCCUS AUREUS A5177; assay: as above
ESCHERICHIA COLI H560 = assay: as above; conditions: E. coli H560, unit assumed
[19] = system: PSEUDOMONAS AERUGINOSA K799/61; assay: as above; conditions: P. aeruginosa K799/61, unit assumed
ESCHERICHIA COLI KNK 437 = conditions: E. coli KNK 437; BHI agar; unit assumed
[20] = system: STREPTOCOCCUS PYOGENES EES61; assay: In vitro antibacterial activity, MIC, BHI agar dilution; conditions: S. pyogenes EES61, unit assumed
[21] = system: ENTEROBACTER AEROGENES ATCC 13048; assay: as above; conditions: E. aerogenes ATCC 13048, unit assumed
[22] = system: ACINETOBACTER CALCOACETICUS CMX 669; assay: as above; conditions: A. calcoaceticus CMX 669, unit assumed
[23] = system: PROVIDENCIA STUARTII CMX 640; conditions: P. stuartii CMX 640; BHI agar; unit assumed
CANDIDA ALBICANS CCH 442 = assay: In vitro antibacterial activity, MIC, BHI agar dilution; conditions: C. albicans CCH 442, unit assumed
ESCHERICHIA COLI JUHL = conditions: E. coli JUHL; BHI agar; unit assumed
ESCHERICHIA COLI SS = assay: In vitro antibacterial activity, MIC, BHI agar dilution; conditions: E. coli SS, unit assumed

Compound	MIC (ESCHERICHIA COLI DC-2)	MIC [2]	MIC [3]	MIC [4]	MIC [5]	MIC [6]	MIC [7]	MIC (PSEUDOMONAS CEPACIA 296I)	MIC [8]	MIC [9]	MIC [10]	MIC [11]	MIC (STR[…] 508)	MIC (M[…] ATCC 9341)	MIC (EN[…] ATCC 8043)	MIC (M[…] ATCC 4698)	MIC [12]	MIC [13]	MIC [14]	MIC [15]	further results
CC[C@H]1OC(=O)[C@H](C)C[C@H](C)[C@@H](O[C@@H]2O[C@H](C)C[C@H](N(C)C)[C@H]2O)[C@](C)(OC)C[C@@H](C)C2=NCCN3C(=O)O[C@@]1(C)[C@H]3[C@H]2C [Example 1]	0.78 µg/mL (≈ 1.25 µM)	> 100 µg/mL	3.1 µg/mL (≈ 4.97 µM)	6.2 µg/mL (≈ 9.94 µM)	> 100 µg/mL	> 100 µg/mL	> 100 µg/mL	12.5 µg/mL (≈ 20 µM)	6.2 µg/mL (≈ 9.94 µM)	6.2 µg/mL (≈ 9.94 µM)	0.78 µg/mL (≈ 1.25 µM)	12.5 µg/mL (≈ 20 µM)	0.39 µg/mL (≈ 0.625 µM)	0.39 µg/mL (≈ 0.625 µM)	0.78 µg/mL (≈ 1.25 µM)	0.39 µg/mL (≈ 0.625 µM)	0.39 µg/mL (≈ 0.625 µM)	50 µg/mL (≈ 80.1 µM)	> 100 µg/mL	> 100 µg/mL	MIC [1]: > 100 µg/mL; MIC [16]: 6.2 µg/mL (≈ 9.94 µM); MIC [17]: > 100 µg/mL; MIC ([18]; S. aureus A5177): 6.2 µg/mL (≈ 9.94 µM); MIC (ESCHERICHIA COLI H560): 50 µg/mL (≈ 80.1 µM); MIC [19]: > 100 µg/mL; MIC (ESCHERICHIA COLI KNK 437): 25 µg/mL (≈ 40.1 µM); MIC [20]: 0.39 µg/mL (≈ 0.625 µM); MIC [21]: > 100 µg/mL; MIC [22]: > 100 µg/mL; MIC [23]: 100 µg/mL (≈ 160 µM); MIC (CANDIDA ALBICANS CCH 442): > 100 µg/mL
CC[C@H]1OC(=O)[C@H](C)C(=O)[C@H](C)[C@@H](O[C@@H]2O[C@H](C)C[C@H](N(C)C)[C@H]2O)[C@](C)(OC)C[C@@H](C)C2=NC[C@H](COCc3ccc(F)cc3)N3C(=O)O[C@@]1(C)[C@H]3[C@H]2C [Example 71]	12.5 µg/mL (≈ 16.1 µM)	> 100 µg/mL	0.2 µg/mL (≈ 0.258 µM)	0.1 µg/mL (≈ 0.129 µM)	100 µg/mL (≈ 129 µM)	25 µg/mL (≈ 32.2 µM)	100 µg/mL (≈ 129 µM)	25 µg/mL (≈ 32.2 µM)	0.1 µg/mL (≈ 0.129 µM)	0.1 µg/mL (≈ 0.129 µM)	0.39 µg/mL (≈ 0.503 µM)	0.1 µg/mL (≈ 0.129 µM)	0.01 µg/mL (≈ 0.0129 µM)	0.01 µg/mL (≈ 0.0129 µM)	0.05 µg/mL (≈ 0.0644 µM)	0.1 µg/mL (≈ 0.129 µM)	0.02 µg/mL (≈ 0.0258 µM)	> 100 µg/mL	> 100 µg/mL	50 µg/mL (≈ 64.4 µM)	MIC (ESCHERICHIA COLI JUHL): 25 µg/mL (≈ 32.2 µM); MIC [16]: 0.1 µg/mL (≈ 0.129 µM); MIC [17]: 100 µg/mL (≈ 129 µM); MIC ([18]; S. aureus A5177, unit assumed): 0.1 µg/mL (≈ 0.129 µM); MIC (ESCHERICHIA COLI H560): 12.5 µg/mL (≈ 16.1 µM); MIC [19]: 0.78 µg/mL (≈ 1.01 µM); MIC (ESCHERICHIA COLI KNK 437): 25 µg/mL (≈ 32.2 µM); MIC [20]: 0.01 µg/mL (≈ 0.0129 µM); MIC [21]: 50 µg/mL (≈ 64.4 µM); MIC [22]: 12.5 µg/mL (≈ 16.1 µM); MIC [23]: 100 µg/mL (≈ 129 µM); MIC (ESCHERICHIA COLI SS): 0.39 µg/mL (≈ 0.503 µM); MIC (CANDIDA ALBICANS CCH 442): > 100 µg/mL
CC[C@H]1OC(=O)[C@H](C)C(=O)[C@H](C)[C@@H](O[C@@H]2O[C@H](C)C[C@H](N(C)C)[C@H]2O)[C@](C)(OC)C[C@@H](C)C2=NC3COCC3N3C(=O)O[C@@]1(C)[C@H]3[C@H]2C (some centres unmarked) [Example 108]	> 100 µg/mL	> 100 µg/mL	12.5 µg/mL (≈ 18.4 µM)	0.78 µg/mL (≈ 1.15 µM)	> 100 µg/mL	> 100 µg/mL	> 100 µg/mL	> 100 µg/mL	0.78 µg/mL (≈ 1.15 µM)	0.39 µg/mL (≈ 0.574 µM)	0.39 µg/mL (≈ 0.574 µM)	1.56 µg/mL (≈ 2.29 µM)	0.1 µg/mL (≈ 0.147 µM)	0.1 µg/mL (≈ 0.147 µM)	0.2 µg/mL (≈ 0.294 µM)	0.78 µg/mL (≈ 1.15 µM)	0.02 µg/mL (≈ 0.0294 µM)	> 100 µg/mL	> 100 µg/mL	> 100 µg/mL	MIC [1]: > 100 µg/mL; MIC [16]: 0.78 µg/mL (≈ 1.15 µM); MIC [17]: > 100 µg/mL; MIC ([18]; S. aureus A5177, unit assumed): 0.39 µg/mL (≈ 0.574 µM); MIC (ESCHERICHIA COLI H560): > 100 µg/mL; MIC [19]: 6.2 µg/mL (≈ 9.12 µM); MIC (ESCHERICHIA COLI KNK 437): > 100 µg/mL; MIC [20]: 0.1 µg/mL (≈ 0.147 µM); MIC [21]: > 100 µg/mL; MIC [22]: 100 µg/mL (≈ 147 µM); MIC [23]: > 100 µg/mL; MIC (ESCHERICHIA COLI SS): 0.78 µg/mL (≈ 1.15 µM); MIC (CANDIDA ALBICANS CCH 442): > 100 µg/mL
